Experimental data from patent EP0051819A2, “Tetra-substituted benzene derivatives, their preparation and pharmaceutical preparations containing them” (F. HOFFMANN-LA ROCHE & CO. Aktiengesellschaft, priority 1980, dated 1982).
Converted amounts (≈) assume the structure as drawn. Where two headings read alike, the source gives them in different places.

Assays:
Assay type in all cases: cell-based
[1] = Cytotoxic dose inhibiting HeLa cell growth; settings: human, hela cells; footnote of Tabelle 2; read-out: cytotoxischen Dosen, die HeLa-Zellwachstum hemmen
[2] = system: Rhinovirus HGP; assay: Antiviral activity: inhibition of viral cytopathogenic effect (C.P.E.) in HeLa cell culture; settings: for IC50: Enterovirus, HeLa, 48 h; for antivirale Aktivität: qualitative statement in the description, no virus named
Method: (§1) Eine Suspension von HeLa-Zellen (6 x 10^4) wurde mit Rhinovirus HGP (3 x 10^3 Plaque-bildende Einheiten, PFU) gemischt und auf eine Mikrotestplatte gebracht, die die zu testenden Verbindungen in zunehmender Verdünnung enthielten. Die Zellen wurden dann in Eagle's Minimalnährlösung, die 2% Kalbsserum, 1% Tryptosephosphatbrühe, 100 ug/ml Streptomycin und 20 Einheiten/ml Penicillin G enthielt, kultiviert. Der virale zytopathogenische Effekt (C.P.E.) und die Cytotoxizität wurden mikroskopisch nach 2 Tagen Kultivierung bei 33°C beobachtet. Die antivirale Aktivität (IC50) der Testverbindungen ist diejenige Konzentration,.bei der C.P.E. um 50% gegenüber der Kontrollkultur gehemmt war. Die Cytotoxizität ist als Minimalkonzentration angegeben, bei der toxische Symptome beobachtet wurden.(cytotoxische Dosis).

[3] = system: Rhinovirus 2; assay: Antiviral spectrum against rhinovirus serotypes (C.P.E. inhibition); settings: Enterovirus; virus strain Rhinovirus 2
Method: as §1
(§2) Weiterhin sind die antiviralen Spektren von 1-(4-Ethoxy-2-hydroxy-6-methoxyphenyl)-3-(4-methoxyphenyl)-1-propanon (Verbindung A) und 4-Ethoxy-2-hydroxy-6-methoxy-N-(p-methoxybenzyl)benzamid (Verbindung B) gegen verschiedene Serotypen von Rhinoviren in Tabelle 2. angegeben.

[4] = system: Rhinovirus 21; assay: as above; settings: Enterovirus; virus strain Rhinovirus 21
Method: as §1, §2

[5] = system: Rhinovirus 50; assay: as above; settings: Enterovirus; virus strain Rhinovirus 50
Method: as §1, §2

[6] = system: Rhinovirus 9; assay: as above; settings: Enterovirus; virus strain Rhinovirus 9
Method: as §1, §2

[7] = system: Rhinovirus 31; assay: as above; settings: Enterovirus; virus strain Rhinovirus 31
Method: as §1, §2

[8] = system: Rhinovirus 47; assay: as above; settings: Enterovirus; virus strain Rhinovirus 47
Method: as §1, §2

[9] = system: Rhinovirus 30; assay: as above; settings: Enterovirus; virus strain Rhinovirus 30
Method: as §1, §2

[10] = system: Rhinovirus 14; assay: as above; settings: Enterovirus; virus strain Rhinovirus 14
Method: as §1, §2

[11] = system: Rhinovirus 1B; assay: as above; settings: Enterovirus; virus strain Rhinovirus 1B
Method: as §1, §2

[12] = system: Rhinovirus 55; assay: as above; settings: Enterovirus; virus strain Rhinovirus 55
Method: as §1, §2

[13] = system: Rhinovirus 32; assay: as above; settings: Enterovirus; virus strain Rhinovirus 32
Method: as §1, §2

[14] = system: Rhinovirus 44; assay: as above; settings: Enterovirus; virus strain Rhinovirus 44
Method: as §1, §2

[15] = system: Rhinovirus 39; assay: as above; settings: Enterovirus; virus strain Rhinovirus 39
Method: as §1, §2

[16] = system: Rhinovirus 1A; assay: as above; settings: Enterovirus; virus strain Rhinovirus 1A
Method: as §1, §2

[17] = system: Rhinovirus 36; assay: as above; settings: Enterovirus; virus strain Rhinovirus 36
Method: as §1, §2

[18] = system: Rhinovirus 16; assay: as above; settings: Enterovirus; virus strain Rhinovirus 16
Method: as §1, §2

[19] = Cytotoxicity in HeLa cells, observed microscopically in the antiviral test; settings: human, hela cells; minimal concentration at which toxic symptoms were observed (cytotoxische Dosis); 2 days at 33°C; read-out: Cytotoxizität
Method: as §1

[20] = system: HeLa-Zellen; assay: as above; settings: minimal concentration at which toxic symptoms were observed (cytotoxische Dosis); 2 days at 33°C
Method: as §1

[21] = system: Rhinovirus 23; assay: Antiviral spectrum against rhinovirus serotypes (C.P.E. inhibition); settings: Enterovirus; virus strain Rhinovirus 23
Method: as §1, §2

[22] = system: Rhinovirus 25; assay: as above; settings: Enterovirus; virus strain Rhinovirus 25
Method: as §1, §2

[23] = system: Rhinovirus 46; assay: as above; settings: Enterovirus; virus strain Rhinovirus 46
Method: as §1, §2

[24] = system: Rhinovirus 24; assay: as above; settings: Enterovirus; virus strain Rhinovirus 24
Method: as §1, §2

[25] = concentration inhibiting C.P.E. by 50% versus control culture, HeLa cells, 2 days at 33°C, read-out: IC50

| Compound | IC50 [2, 25] [µg/mL] | antivirale Aktivität [2] | MCC at 48 h [19] [µg/mL] | other results |
| --- | --- | --- | --- | --- |
| CCOc1cc(O)c(C(=O)NCc2ccc(OC)cc2)c(OC)c1 [4-Ethoxy-2-hydroxy-6-methoxy-N-(p-methoxybenzyl)benzamid] | 0.002 (≈ 0.00604 µM) | besonders starke antivirale Aktivität | > 10 | MCC [1]: 40 µg/mL; IC50 [3]: 0.001 µg/mL (≈ 0.00302 µM); IC50 [4]: < 0.001 µg/mL; IC50 [5]: 0.01 µg/mL (≈ 0.0302 µM); IC50 [6]: 0.003 µg/mL (≈ 0.00905 µM); IC50 [7]: 0.081 to 0.24 µg/mL (≈ 0.244 to 0.724 µM); IC50 [8]: 0.003 µg/mL (≈ 0.00905 µM); IC50 [9]: 0.001 to 0.003 µg/mL (≈ 0.00302 to 0.00905 µM); IC50 [10]: 0.009 to 0.027 µg/mL (≈ 0.0272 to 0.0815 µM); IC50 [11]: 0.003 to 0.009 µg/mL (≈ 0.00905 to 0.0272 µM); IC50 [12]: 0.009 µg/mL (≈ 0.0272 µM); IC50 [13]: 0.003 to 0.009 µg/mL (≈ 0.00905 to 0.0272 µM); IC50 [14]: 0.003 µg/mL (≈ 0.00905 µM); IC50 [15]: 0.003 µg/mL (≈ 0.00905 µM); IC50 [16]: 0.009 to 0.027 µg/mL (≈ 0.0272 to 0.0815 µM); IC50 [17]: 0.009 to 0.027 µg/mL (≈ 0.0272 to 0.0815 µM); IC50 [18]: 0.003 µg/mL (≈ 0.00905 µM) |
| CCOc1cc(OC)c(C(=O)NCc2ccc(OC)cc2)c(OP(=O)([O-])[O-])c1.[Na+].[Na+] [Dinatrium 2-[(p-Anisylamino)carbonyl]-5-ethoxy-3-methoxyphenyl-phosphat] |  | besonders starke antivirale Aktivität |  | IC50 [2]: 0.01 to 0.03 µg/mL; Cytotoxizität [20]: >8 µg/mL |
| CCOc1cc(OC)c(C(=O)CCc2ccc(OC)cc2)c(OP(=O)([O-])[O-])c1.[Na+].[Na+] [Dinatrium 5-ethoxy-3-methoxy-2-[3-(4-methoxyphenyl)-propionyl]phenylphosphat] |  |  |  | IC50 [2]: 0.03 to 0.1 µg/mL; Cytotoxizität [20]: >10 µg/mL |
| CCOc1cc(O)c(C(=O)CCc2ccc(OC)cc2)c(OC)c1 [1-(4-Ethoxy-2-hydroxy-6-methoxyphenyl)-3-(4-methoxyphenyl)-1-propanon] | 0.002 (≈ 0.00605 µM) | besonders starke antivirale Aktivität | > 8 | MCC [1]: 60 µg/mL; IC50 [3]: 0.001 µg/mL (≈ 0.00303 µM); IC50 [4]: < 0.001 µg/mL; IC50 [21]: 0.004 µg/mL (≈ 0.0121 µM); IC50 [5]: 0.004 to 0.012 µg/mL (≈ 0.0121 to 0.0363 µM); IC50 [6]: 0.012 to 0.037 µg/mL (≈ 0.0363 to 0.112 µM); IC50 [22]: 0.01 to 0.09 µg/mL (≈ 0.0303 to 0.272 µM); IC50 [7]: 0.03 to 0.09 µg/mL (≈ 0.0908 to 0.272 µM); IC50 [23]: 0.037 to 0.11 µg/mL (≈ 0.112 to 0.333 µM); IC50 [24]: 0.01 to 0.03 µg/mL (≈ 0.0303 to 0.0908 µM); IC50 [10]: 0.1 to 0.3 µg/mL (≈ 0.303 to 0.908 µM); IC50 [11]: 0.03 to 0.09 µg/mL (≈ 0.0908 to 0.272 µM); IC50 [15]: 0.012 to 0.037 µg/mL (≈ 0.0363 to 0.112 µM); IC50 [16]: 0.03 to 0.09 µg/mL (≈ 0.0908 to 0.272 µM) |
| COc1ccc(NC(=O)c2c(O)cc(OC)cc2OC)cc1 [2-Hydroxy-4,6-dimethoxy-N-(4--methoxyphenyl)benzamid] | 0.03 to 0.1 (≈ 0.0989 to 0.33 µM) |  | > 10 |  |
| CCCOc1cc(O)c(C(=O)NCc2ccc(OC)cc2)c(OC)c1 [2-Hydroxy-6-methoxy-4-propoxy-N-(p-methoxybenzyl)benzamid] | 0.001 to 0.003 (≈ 0.0029 to 0.00869 µM) | besonders starke antivirale Aktivität | > 20 |  |
| COc1cc(O)c(C(=O)NCc2ccc(C)cc2)c(OC)c1 [2-Hydroxy-4,6-dimethoxy-N-(p--methylbenzyl)benzamid] | 0.01 to 0.03 (≈ 0.0332 to 0.0996 µM) |  | 8 |  |
| COc1cc(O)c(C(=O)NCc2ccc3c(c2)OCO3)c(OC)c1 [2-Hydroxy-4,6-dimethoxy-N-(m,p--methylenedioxybenzyl)benzamid] | 0.003 to 0.01 (≈ 0.00905 to 0.0302 µM) |  | > 8 |  |
| COc1cc(O)c(C(=O)CCc2ccc(SC)cc2)c(OC)c1 [1-(2-Hydroxy-4,6-dimethoxy-phenyl)-3-[4-(methylthio)-phenyl]-1-propanon] | 0.01 to 0.03 (≈ 0.0301 to 0.0902 µM) |  | 8 |  |
| COc1cc(O)c(C(=O)NCc2ccc(OC)c(O)c2)c(OC)c1 [2-Hydroxy-N-(m-hydroxy-p-methoxy-benzyl)-4,6-dimethoxybenzamid] | 0.1 to 0.3 (≈ 0.3 to 0.9 µM) |  | 2.7 |  |
| C=CCOc1cc(O)c(C(=O)NCc2ccc(OC)cc2)c(OC)c1 [4-(Allyloxy)-2-hydroxy-6-methoxy-N-(p-methoxybenzyl)benzamid] | 0.002 (≈ 0.00582 µM) | besonders starke antivirale Aktivität | > 8 |  |
| COc1cc(O)c(C(=O)CCC2CCC(C)O2)c(OC)c1 (stereo not drawn) [1-(2-Hydroxy-4,6-dimethoxyphenyl)-3-(tetrahydro-5-methyl-2-furyl)-1-propanon] | 0.9 (≈ 3.06 µM) |  | > 8 |  |
| COc1cc(O)c(C(=O)NCC2CCCS2)c(OC)c1 (stereo not drawn) [2-Hydroxy-4,6-dimethoxy-N--(tetrahydro-2-thenyl)benzamid] | 0.004 to 0.01 (≈ 0.0135 to 0.0336 µM) |  | 8 |  |
| CCOc1cc(OC)cc(O)c1C(=O)CCc1ccc(OC)cc1 [1-(2-Ethoxy-6-hydroxy-4--methoxyphenyl)-3-(4-methoxy-phenyl)-1-propanon] | 0.01 to 0.03 (≈ 0.0303 to 0.0908 µM) |  | 0.9 |  |
| COc1ccc(CNC(=O)c2c(O)cc(OCC=C(C)C)cc2OC)cc1 [2-Hydroxy-6-methoxy-4-(3-methyl-2-butenyloxy)-N-(p-methoxybenzyl)benzamid] | 0.001 to 0.002 (≈ 0.00269 to 0.00538 µM) | besonders starke antivirale Aktivität | > 8 |  |
| CCCOc1cc(OC)c(C(=O)NCc2ccc(OC)cc2)c(OP(=O)([O-])[O-])c1.[Na+].[Na+] [Dinatrium 2-[(p-anisylamino)carbonyl]-3-methoxy-5-propoxyphenylphosphat] |  | besonders starke antivirale Aktivität | > 200 | IC50 [2]: 0.01 to 0.02 µg/mL |
| COc1ccc(CNC(=O)c2c(OC)cc(OC)cc2OC(=O)c2ccccc2)cc1 [2-[(p-Anisylamino)carbonyl]-3,5-dimethoxyphenyl-benzoat] | 0.03 (≈ 0.0712 µM) |  | > 8 |  |
| COc1cccc(CNC(=O)c2c(O)cc(OC)cc2OC)c1 [2-Hydroxy-4,6-dimethoxy-N-(m--methoxybenzyl)benzamid] | 0.002 (≈ 0.0063 µM) |  | > 8 |  |
| CCCCCCCCCCCCCCCCCC(=O)Oc1cc(OCC)cc(OC)c1C(=O)CCc1ccc(OC)cc1 [5-Ethoxy-3-methoxy-2-[3-(4-methoxyphenyl)propionyl]phenyl-octadecanoat] | 0.9 (≈ 1.51 µM) |  | > 8 |  |
| CCOc1cc(OC)c(C(=O)CCc2ccc(OC)cc2)c(OP(=O)(O)O)c1 [5-Ethoxy-3-methoxy-2-[3-(4-methoxyphenyl)propionyl]phenyldihydrogenphosphat] |  |  | > 10 | IC50 [2]: 0.3 to 0.8 µg/mL (≈ 0.731 to 1.95 µM) |
| COc1cc(O)c(C(=O)CCc2ccc(Cl)cc2)c(OC)c1 [3-(4-Chlorophenyl)-1-(2-hydroxy--4,6-dimethoxyphenyl)-1--propanon] | 0.1 (≈ 0.312 µM) |  | 10 |  |
| CCOC(=O)Oc1cc(OCC)cc(OC)c1C(=O)CCc1ccc(OC)cc1 [5-Ethoxy-3-methoxy-2-[3-(4-methoxyphenyl)propionyl]-phenyl-ethylcarbonat] | 0.002 (≈ 0.00497 µM) | besonders starke antivirale Aktivität | 8 |  |
| COc1ccc(C(=O)CC(=O)c2c(O)cc(OC)cc2OC)cc1 [1-(2-Hydroxy-4,6-dimethoxyphenyl)-3-(4-methoxyphenyl)-1,3-propandion] | 0.01 to 0.03 (≈ 0.0303 to 0.0908 µM) |  | 8 |  |
| CCCCCCCCCCCCCCCCCC(=O)Oc1cc(OC)cc(OC)c1C(=O)NCc1ccc(OC)cc1 [2-[(p-Anisylamino)carbonyl]-3,5-dimethoxyphenyl-octadecanoat] | 0.3 to 0.9 (≈ 0.514 to 1.54 µM) |  | > 8 |  |
| C=CCOc1ccc(CNC(=O)c2c(OC)cc(OC)cc2OC(=O)c2ccccc2)cc1 [2-{[[p-(Allyloxy)benzyl]amino]carbonyl}-3,5-dimethoxyphenyl-benzoat] | 0.002 (≈ 0.00447 µM) | besonders starke antivirale Aktivität | 2.7 |  |
